Experimental data taken from paper PMC7127579 (Febs Letters, 2006).

Biological target: T1, FhePrx (recombinant 2-Cys peroxiredoxin of Fasciola hepatica) (Fasciola hepatica, UniProt P91883)
T1 sequence (P91883 1-194): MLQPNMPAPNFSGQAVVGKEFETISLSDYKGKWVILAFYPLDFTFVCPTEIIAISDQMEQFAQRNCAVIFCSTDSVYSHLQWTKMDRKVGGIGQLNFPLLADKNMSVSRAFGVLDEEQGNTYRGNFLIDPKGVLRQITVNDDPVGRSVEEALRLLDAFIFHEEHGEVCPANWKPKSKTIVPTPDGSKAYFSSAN
Assay: coupled NADPH oxidation assay
Type: biochemical
Conditions: E. coli thioredoxin and thioredoxin reductase, 0.25 mM NADPH, 1 mM EDTA, 5 mM potassium phosphate pH 7.0, 22 °C

| SMILES | Km |
| --- | --- |
| CC(C)(C)OO [t-Butyl hydroperoxide] | 18.6 µM |
| CC(C)(OO)c1ccccc1 [Cumene hydroperoxide] | 12.7 µM |
